Laboratory results: patent US20230145835A1, “Modulators of Alpha-4-beta-7 Integrin and MAdCAM” (48HD Biopharma Inc., priority 2021, published 2023)
Numbered stars: 1 amine (or outer) side, 2 acyl side, 3 side chain; on linkers, the order of the positions; unused ones are H or OH. Bridge positions count the residues as written; N and C are the ends. Square brackets hold non-standard residues; d marks the D form. Peptide text beside a SMILES is read from it. X3 = O=C(/C=N/OCCCCCCOc1cc(C[*:2])cc(C[*:3])c1)[*:1]; X1 = O=C(C=NOCCCCCCOc1cc(C[*:2])cc(C[*:3])c1)[*:1]; X5 = O=C(CCCCCCOc1cc(C[*:2])cc(C[*:3])c1)[*:1]; Nle = CCCC[C@H](N)C(=O)O

Tested on: not listed separately
Assay: Simulated Intestinal Fluid Assay
Settings: FaSSIF, LCMS/MS
Procedure: Studies were carried out in simulated intestinal fluid (SIF) to evaluate the intestinal stability of the peptide molecules of the peptides of the instant disclosure. A Fasted State Simulated Intestinal Fluid (FaSSIF) reagent was prepared according to methods known in the art (including addition of the enzyme pancreatin), to which stock peptide solutions were added, incubated, quenched, and analyzed using LCMS/MS.
Percent remaining at each time point was calculated based on the peak area response ratio of test to compound to internal standard. Half-lives were calculated by fitting to a first-order exponential decay equation using GraphPad.

**Q.** For `C[C@@H](O)[C@H](NC(=O)[C@H](CC(=O)O)NC(=O)[C@@H]1CCCN1C(=O)[C@H](Cc1ccc(O)cc1)NC(=O)[C@H](CS)NC(=O)[C@H](CC(=O)O)NC(=O)[C@@H](N)CO)C(=O)N[C@@H](Cc1ccc(O)cc1)C(=O)N[C@@H](Cc1c[nH]cn1)C(=O)N[C@@H](CS)C(=O)O` [SEQ ID NO. 13] (H-SDCYPDTYHC-OH), which Comments is on record?
**A.** No peak

Same assay, conditions: simulated gi fluid

**Q.** For `C[C@@H](O)[C@@H]1NC(=O)[C@H](CC(=O)O)NC(=O)[C@@H]2CCCN2C(=O)[C@H](Cc2ccc(O)cc2)NC(=O)[C@@H]2CSCc3cc(cc(c3)OCCCCCCON=CC(=O)N[C@@H](CC(=O)O)C(=O)N2)CSC[C@@H](C(=O)O)NC(=O)[C@H](Cc2c[nH]cn2)NC(=O)[C@H](Cc2ccc(O)cc2)NC1=O` [SEQ ID NO. 16] (DCYPDTYHC-OH; linker N-2-9 via X1), which half-life is on record?
**A.** 3.45 h

**Q.** With `CSCC[C@@H]1NC(=O)C=NOCCCCCCOc2cc3cc(c2)CSC[C@H](NC1=O)C(=O)N1CCC[C@H]1C(=O)N[C@@H](CC(C)C)C(=O)N[C@@H](Cc1ccc(O)cc1)C(=O)N[C@@H](CCCCN)C(=O)N[C@@H](C(C)C)C(=O)N[C@@H](Cc1c[nH]cn1)C(=O)N[C@H](C(=O)O)CSC3` [SEQ ID NO. 8] (MCPLYKVHC-OH; linker N-2-9 via X1) as the molecule, how does the half-life read?
**A.** 0.137 h

**Q.** For `CC(C)C[C@@H]1NC(=O)[C@@H]2CSCc3cc(cc(c3)OCCCCCCO/N=C/C(=O)N[C@@H](Cc3ccccc3)C(=O)N2)CSC[C@@H](C(N)=O)NC(=O)[C@H](CO)NC(=O)[C@H](C)NC(=O)[C@H](CCC(=O)O)NC(=O)[C@H](Cc2ccc(O)cc2)NC(=O)CNC1=O` [SEQ ID NO: 22] (FCLGYEASC-NH2; linker N-2-9 via X3), which half-life is on record?
**A.** 1.2 h

**Q.** With `CC(C)C[C@@H]1NC(=O)[C@@H]2CSCc3cc(cc(c3)OCCCCCCON=CC(=O)N[C@@H](CCCCN)C(=O)N2)CSC[C@@H](C(=O)O)NC(=O)[C@H]([C@@H](C)O)NC(=O)[C@H](CCC(N)=O)NC(=O)[C@H](CCC(=O)O)NC(=O)[C@H](Cc2c[nH]c3ccccc23)NC(=O)CNC1=O` [SEQ ID NO. 20] (KCLGWEQTC-OH; linker N-2-9 via X1) as the molecule, how does the half-life read?
**A.** 1.36 h

**Q.** Which half-life does the source give for `C[C@@H](O)[C@@H]1NC(=O)[C@H](CC(=O)O)NC(=O)[C@@H]2CCCN2C(=O)[C@H](Cc2ccc(O)cc2)NC(=O)[C@@H](NC(=O)[C@H](CC(=O)O)NC(=O)[C@@H](N)CO)CSSC[C@@H](C(N)=O)NC(=O)[C@H](Cc2c[nH]cn2)NC(=O)[C@H](Cc2ccc(O)cc2)NC1=O` [SEQ ID NO. 14] (H-SDCYPDTYHC-NH2; disulfide 3-10) here?
**A.** 1.32 h

**Q.** For `CSCC[C@H](NC(=O)[C@@H](N)CO)C(=O)N[C@H]1CSSC[C@@H](C(=O)O)NC(=O)[C@H](Cc2c[nH]cn2)NC(=O)[C@H](C(C)C)NC(=O)[C@H](CCCCN)NC(=O)[C@H](Cc2ccc(O)cc2)NC(=O)[C@H](CC(C)C)NC(=O)[C@@H]2CCCN2C1=O` [SEQ ID NO. 5] (H-SMCPLYKVHC-OH; disulfide 3-10), which half-life is on record?
**A.** 0.393 h

**Q.** With `CSCC[C@@H]1NC(=O)[C@H](CCCNC(=N)N)NC(=O)CNC(=O)[C@H](Cc2ccc(O)cc2)NC(=O)[C@H](Cc2c[nH]c3ccccc23)NC(=O)[C@H](CCC(N)=O)NC(=O)[C@@H]2CSCc3cc(cc(c3)OCCCCCCON=CC(=O)N[C@@H](C)C(=O)N2)CSC[C@@H](C(=O)O)NC1=O` [SEQ ID NO. 21] (ACQWYGRMC-OH; linker N-2-9 via X1) as the molecule, how does the half-life read?
**A.** 0.328 h

**Q.** Which half-life does the source give for `CC(C)C[C@@H]1NC(=O)[C@@H]2CCCN2C(=O)[C@H](Cc2c[nH]c3ccccc23)NC(=O)[C@@H]2CCCN2C(=O)[C@@H]2CSCc3cc(cc(c3)OCCCCCCON=CC(=O)N[C@@H](CCC(=O)O)C(=O)N2)CSC[C@@H](C(=O)O)NC(=O)[C@H](CCC(N)=O)NC(=O)[C@@H]2CCCN2C1=O` [SEQ ID NO. 15] (ECPWPLPQC-OH; linker N-2-9 via X1) here?
**A.** 1.07 h

Target: T1, rh-integrin α4β7/LPAM-1 (Homo sapiens, UniProt P13612+P26010)
T1 sequence (P13612 34-977 limits assumed): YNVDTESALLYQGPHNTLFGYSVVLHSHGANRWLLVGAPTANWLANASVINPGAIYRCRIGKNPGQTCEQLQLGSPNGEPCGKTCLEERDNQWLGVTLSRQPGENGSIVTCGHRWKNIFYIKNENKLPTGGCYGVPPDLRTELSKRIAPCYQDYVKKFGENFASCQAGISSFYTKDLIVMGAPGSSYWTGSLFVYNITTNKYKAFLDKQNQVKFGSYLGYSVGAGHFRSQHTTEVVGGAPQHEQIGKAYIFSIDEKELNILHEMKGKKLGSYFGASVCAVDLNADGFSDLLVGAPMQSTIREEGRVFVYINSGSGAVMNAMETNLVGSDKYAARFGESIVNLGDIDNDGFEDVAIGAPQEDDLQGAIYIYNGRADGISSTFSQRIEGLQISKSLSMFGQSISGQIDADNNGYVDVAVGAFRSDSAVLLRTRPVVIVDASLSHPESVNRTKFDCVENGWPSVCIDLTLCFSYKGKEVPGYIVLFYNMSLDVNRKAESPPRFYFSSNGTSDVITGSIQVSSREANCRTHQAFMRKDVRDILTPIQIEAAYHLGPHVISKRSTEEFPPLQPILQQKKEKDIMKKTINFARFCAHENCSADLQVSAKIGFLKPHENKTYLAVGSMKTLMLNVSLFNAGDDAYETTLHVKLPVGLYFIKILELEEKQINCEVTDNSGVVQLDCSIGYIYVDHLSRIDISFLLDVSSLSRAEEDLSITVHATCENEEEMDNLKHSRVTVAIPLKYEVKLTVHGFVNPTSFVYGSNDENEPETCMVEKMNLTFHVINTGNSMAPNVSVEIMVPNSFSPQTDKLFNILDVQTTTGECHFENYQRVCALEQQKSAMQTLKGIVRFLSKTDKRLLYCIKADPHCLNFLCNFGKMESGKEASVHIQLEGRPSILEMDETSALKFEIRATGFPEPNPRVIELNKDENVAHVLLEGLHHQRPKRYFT
T1 sequence (P26010 20-723 limits assumed): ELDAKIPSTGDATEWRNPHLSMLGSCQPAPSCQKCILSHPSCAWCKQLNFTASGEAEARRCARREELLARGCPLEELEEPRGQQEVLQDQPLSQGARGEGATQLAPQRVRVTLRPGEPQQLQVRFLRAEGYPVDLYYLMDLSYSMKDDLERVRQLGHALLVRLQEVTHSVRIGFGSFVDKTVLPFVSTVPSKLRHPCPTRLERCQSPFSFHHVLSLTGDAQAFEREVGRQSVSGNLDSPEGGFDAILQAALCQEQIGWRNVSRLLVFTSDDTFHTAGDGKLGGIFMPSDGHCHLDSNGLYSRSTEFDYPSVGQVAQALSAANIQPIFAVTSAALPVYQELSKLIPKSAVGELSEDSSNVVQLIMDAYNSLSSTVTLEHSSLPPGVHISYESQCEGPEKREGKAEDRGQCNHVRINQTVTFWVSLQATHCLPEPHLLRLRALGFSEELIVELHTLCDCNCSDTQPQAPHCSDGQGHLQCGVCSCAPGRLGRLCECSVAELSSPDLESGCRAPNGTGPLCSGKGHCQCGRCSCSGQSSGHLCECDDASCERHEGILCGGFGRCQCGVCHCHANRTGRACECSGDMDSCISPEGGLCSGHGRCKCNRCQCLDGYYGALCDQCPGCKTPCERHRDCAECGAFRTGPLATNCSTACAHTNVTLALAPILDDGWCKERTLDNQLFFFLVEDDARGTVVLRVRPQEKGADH
Assay: α4β7-MadCAM Competition ELISA (Example 4)
Format: binding
Settings: Table 3 Representative compounds; inhibition of MAdCAM binding to coated α4β7; read-out: IC50
Procedure: After washing with wash buffer, 200 μL assay buffer was added to each well and incubated for one hour at 28° C. After another wash with wash buffer, 100 μL of a MAdCAM and peptide mixture in assay buffer was added to each well and incubated for one hour at 28° C., followed by washing with wash buffer.

**Q.** Which IC50 does the source give for `CC[C@H](C)[C@@H]1NC(=O)[C@H](CC(=O)O)NC(=O)[C@H](CCSC)NC(=O)[C@@H]2CCCN2C(=O)C(NC(=O)[C@H](CCCNC(=N)N)NC(=O)[C@H](CO)NC(C)=O)CSSC[C@@H](C(=O)N[C@@H](CCCCNC(=O)COCC(=O)NCCCC[C@H](NC(=O)[C@@H]2CSSC[C@H](NC(=O)[C@H](CCCNC(=N)N)NC(=O)[C@H](CO)NC(C)=O)C(=O)N3CCC[C@H]3C(=O)N[C@@H](CCSC)C(=O)N[C@@H](CC(=O)O)C(=O)N[C@@H]([C@@H](C)CC)C(=O)N[C@@H](C)C(=O)NCC(=O)N[C@@H](CCC(=O)O)C(=O)N2)C(N)=O)C(N)=O)NC(=O)[C@H](CCC(=O)O)NC(=O)CNC(=O)[C@H](C)NC1=O` (stereo in doubt) [compound 32] here?
**A.** 729 nM

**Q.** For `CC(C)C[C@@H]1NC(=O)[C@H]([C@@H](C)O)NC(=O)[C@H](CC(=O)O)NC(=O)[C@H](CO)NC(=O)[C@H](CCCNC(=N)N)N(C)C(=O)CCSC[C@@H](C(=O)N[C@@H](Cc2c[nH]c3ccccc23)C(=O)N[C@@H](CCCCN)C(N)=O)NC1=O` [compound 2], which IC50 is on record?
**A.** 33 nM

**Q.** Which IC50 does the source give for `CSCC[C@@H]1NC(=O)[C@@H]2CCCN2C(=O)[C@@H]2CSCc3cc(cc(c3)OCCCCCCO/N=C/C(=O)N[C@@H](C)C(=O)N2)CSC[C@@H](C(N)=O)NC(=O)[C@H](CCC(=O)O)NC(=O)CNC(=O)[C@H](Cc2c[nH]c3ccccc23)NC(=O)[C@H](C(C)C)NC(=O)[C@H](CC(=O)O)NC1=O` [compound 75, TSL6- SACPMDVWGEC] (ACPMDVWGEC-NH2; linker N-2-10 via X3) here?
**A.** 31300 nM

**Q.** Which IC50 does the source give for `CC(C)C[C@@H]1NC(=O)[C@H]([C@@H](C)O)NC(=O)[C@H](CC(=O)O)NC(=O)[C@H](CO)NC(=O)[C@H](CCCNC(=N)N)N(C)C(=O)c2ccccc2CSC(C)(C)[C@@H](C(=O)N[C@@H](Cc2c[nH]c3ccccc23)C(=O)N[C@H](CCC(=O)O)C(N)=O)NC1=O` [compound 1] here?
**A.** 3 nM

**Q.** Which IC50 does the source give for `C[C@@H](O)[C@@H]1NC(=O)[C@H](CC(=O)O)NC(=O)[C@@H]2CCCN2C(=O)[C@H](Cc2c[nH]c3ccccc23)NC(=O)[C@@H]2CSCc3cc(cc(c3)OCCCCCCO/N=C/C(=O)N[C@@H](CC(=O)O)C(=O)N2)CSC[C@H](C(N)=O)NC(=O)[C@H](Cc2cnc[nH]2)NC(=O)[C@H](Cc2ccc(O)cc2)NC1=O` [compound 95, TSL6- SDCWPDTYHC] (DCWPDTYH[dC]-NH2; linker N-2-9 via X3) here?
**A.** 114000 nM

Same assay, conditions: competition ELISA, 4 μg/mL α4β7 coated, MAdCAM and peptide mixture, 28° C.; read-out: IC50

**Q.** For `CSCC[C@@H]1NC(=O)[C@@H]2CCCN2C(=O)[C@@H]2CSCc3cc(cc(c3)OCCCCCCON=CC(=O)N[C@@H](C)C(=O)N2)CSC[C@@H](C(=O)O)NC(=O)[C@H](CCC(=O)O)NC(=O)CNC(=O)[C@H](C)NC(=O)[C@H](C(C)C)NC(=O)[C@H](CC(=O)O)NC1=O` [SEQ ID NO: 101] (ACPMDVAGEC-OH; linker N-2-10 via X1), which IC50 is on record?
**A.** 5980 nM

**Q.** For `CCCC[C@@H]1NC(=O)[C@@H]2CCCN2C(=O)[C@@H]2CSCc3cc(cc(c3)OCCCCCCC(=O)NCC(=O)N[C@@H](CCCNC(=N)N)C(=O)N2)CSC[C@@H](C(=O)O)NC(=O)[C@H](CCC(=O)O)NC(=O)[C@H](CCC(N)=O)NC(=O)[C@H](Cc2c[nH]c3ccccc23)NC(=O)[C@H]([C@@H](C)CC)NC(=O)[C@H](CC(=O)O)NC1=O` [SEQ ID NO: 147] (GRCP[Nle]DIWQEC-OH; linker N-3-11 via X5; C-terminus assumed), which IC50 is on record?
**A.** 75 nM
